# Assays:
# Δarr M. abscessus = test: MIC assay, isogenic arr-deleted strain; format: cell-based, Mycobacterium abscessus; details: for Δarr Mab MIC: arr-deleted strain, 90% growth inhibition; for MICΔorr: Table 10
# Procedure: (§1) MIC determination was carried out in 96-well plate format as previously described.^[13-14] 96-well plates were initially set up with 100 μL of 7H9 per well. For each compound, a ten-point two-fold dilution series starting at twice the desired highest concentration was dispensed onto the 96-well plates using a Tecan D300e Digital Dispenser, with the DMSO concentration normalized to 2%. M. abscessus culture grown to mid-log phase (OD600=0.4-0.6) was diluted to OD600=0.1 (1×10^7 CFU/mL). […] Untreated control wells are included on each plate that contain bacteria suspension and 1% DMSO. Plates were sealed with parafilm, stored in boxes with wet paper towels and incubated at 37° C. with shaking (110 RPM). Plates were incubated for 3 days. To determine growth, OD600 was measured using a Tecan Infinite M200 plate reader on Day 0 and Day 3. Two biological replicates were performed. Clarithromycin was included in each experiment as a positive control.
# (§2) For each well on the 96-well plate, bacterial growth was calculated by subtracting the Day 0 OD600 value from the Day 3 OD600 value. […] For compound-containing wells, percentage growth was calculated by dividing their growth values by the average drug-free bacterial growth for the compound series and multiplying by 100. For each compound series, we plotted percentage growth versus compound concentration.
# M. abscessus ATCC 19977 = test: MIC assay in 96-well plate format, wild-type strain; format: cell-based, Mycobacterium abscessus; details: for MIC: M. abscessus ATCC 19977, 90% growth inhibition, read-out: WT Mab MIC; for MIC ratio: WT MIC/Δarr strain MIC; for fold loss of potency compared to 5a: MIC against M. abscessus; for MICWT: Table 10
# Procedure: as §1, §2
Compound,Δarr Mab MIC (Δarr M. abscessus) [µM],MIC (M. abscessus ATCC 19977) [µM],MIC ratio (M. abscessus ATCC 19977),fold loss of potency compared to 5a (M. abscessus ATCC 19977) [fold],MICΔorr (Δarr M. abscessus) [µM],MICWT (M. abscessus ATCC 19977) [µM]
"CO[C@H]1/C=C/O[C@@]2(C)Oc3c(C)c(O)c4c(c3C2=O)C2=NC3(CCN(CC(C)C)CC3)NC2=C(NC(=O)/C(C)=C/C=C/[C@H](C)[C@H](O)[C@@H](C)[C@@H](O)[C@@H](C)[C@H](OC(=O)c2ccccc2Cl)[C@@H]1C)C4=O [5f, 25-O-(2-chlorobenzoyl)-25-O-desacetyrifabutin]",0.049,0.043,0.9,,,
"COc1ccccc1C(=O)O[C@H]1[C@H](C)[C@H](O)[C@H](C)[C@@H](O)[C@@H](C)/C=C/C=C(\C)C(=O)NC2=C3NC4(CCN(CC(C)C)CC4)N=C3c3c(c(O)c(C)c4c3C(=O)[C@@](C)(O/C=C/[C@H](OC)[C@H]1C)O4)C2=O [5g, 25-O-(2-methoxybenzoyl)-25-O-desacetyrifabutin]",0.03,0.03,1.0,,,
"CO[C@H]1/C=C/O[C@@]2(C)Oc3c(C)c(O)c4c(c3C2=O)C2=NC3(CCN(CC(C)C)CC3)NC2=C(NC(=O)/C(C)=C/C=C/[C@H](C)[C@H](O)[C@@H](C)[C@@H](O)[C@@H](C)[C@H](OC(=O)c2ccccc2C(F)(F)F)[C@@H]1C)C4=O [5h, 25-O-(2-trifluoromethylbenzoyl)-25-O-desacetyrifabutin]",0.12,0.1,0.8,2,,
"CO[C@H]1/C=C/O[C@@]2(C)Oc3c(C)c(O)c4c(c3C2=O)C2=NC3(CCN(CC(C)C)CC3)NC2=C(NC(=O)/C(C)=C/C=C/[C@H](C)[C@H](O)[C@@H](C)[C@@H](O)[C@@H](C)[C@H](OC(=O)c2ccccc2-c2ccccc2)[C@@H]1C)C4=O [5i, 25-O-(2-phenylbenzoyl)-25-O-desacetyrifabutin]",0.14,0.26,1.8,5,,
CCC(CC)C(=O)O[C@H]1[C@H](C)[C@H](O)[C@H](C)[C@@H](O)[C@@H](C)/C=C/C=C(\C)C(=O)NC2=C3NC4(CCN(CC(C)C)CC4)N=C3c3c(c(O)c(C)c4c3C(=O)[C@@](C)(O/C=C/[C@H](OC)[C@H]1C)O4)C2=O [5l],0.049,1.15,23.5,,,
"CO[C@H]1/C=C/O[C@@]2(C)Oc3c(C)c(O)c4c(c3C2=O)C2=NC3(CCN(CC(C)C)CC3)NC2=C(NC(=O)/C(C)=C/C=C/[C@H](C)[C@H](O)[C@@H](C)[C@@H](O)[C@@H](C)[C@H](OC(=O)c2nccs2)[C@@H]1C)C4=O [5o, 25-O-(2-thiazolecarbonyl)-25-O-desacetyrifabutin]",0.017,0.017,1.0,,,
CO[C@H]1/C=C/O[C@@]2(C)Oc3c(C)c(O)c4c(c3C2=O)C2=NC3(CCN(CC(C)C)CC3)NC2=C(NC(=O)/C(C)=C/C=C/[C@H](C)[C@H](O)[C@@H](C)[C@@H](O)[C@@H](C)[C@H](OC(=O)c2cccc(C)c2)[C@@H]1C)C4=O [UMN8],,,,,0.065,0.075
CO[C@H]1/C=C/O[C@@]2(C)Oc3c(C)c(O)c4c(c3C2=O)C2=NC3(CCN(CC(C)C)CC3)NC2=C(NC(=O)/C(C)=C/C=C/[C@H](C)[C@H](O)[C@@H](C)[C@@H](O)[C@@H](C)[C@H](OC(=O)c2ccc(C)cc2)[C@@H]1C)C4=O [UMN9],,,,,0.11,0.2
CCC(CC)C(=O)O[C@H]1[C@H](C)[C@H](O)[C@H](C)[C@@H](O)[C@@H](C)/C=C/C=C(\C)C(=O)NC2=C3NC4(CCN(CC(C)C)CC4)N=C3c3c(c(O)c(C)c4c3C(=O)[C@@](C)(O/C=C/[C@H](OC)[C@H]1C)O4)C2=O [UMN17],,,,,0.049,1.15
CCC(C)C(=O)O[C@H]1[C@H](C)[C@H](O)[C@H](C)[C@@H](O)[C@@H](C)/C=C/C=C(\C)C(=O)NC2=C3NC4(CCN(CC(C)C)CC4)N=C3c3c(c(O)c(C)c4c3C(=O)[C@@](C)(O/C=C/[C@H](OC)[C@H]1C)O4)C2=O (stereo partly shown) [UMN21],,,,,0.028,1.1
CO[C@H]1/C=C/O[C@@]2(C)Oc3c(C)c(O)c4c(c3C2=O)C2=NC3(CCN(CC(C)C)CC3)NC2=C(NC(=O)/C(C)=C/C=C/[C@H](C)[C@H](O)[C@@H](C)[C@@H](O)[C@@H](C)[C@H](OC(=O)c2ccccc2-c2ccccc2)[C@@H]1C)C4=O [UMN25],,,,,0.14,0.26
CO[C@H]1/C=C/O[C@@]2(C)Oc3c(C)c(O)c4c(c3C2=O)C2=NC3(CCN(CC(C)C)CC3)NC2=C(NC(=O)/C(C)=C/C=C/[C@H](C)[C@H](O)[C@@H](C)[C@@H](O)[C@@H](C)[C@H](OC(=O)c2ccccc2C(F)(F)F)[C@@H]1C)C4=O [UMN30],,,,,0.12,0.1
CO[C@H]1/C=C/O[C@@]2(C)Oc3c(C)c(O)c4c(c3C2=O)C2=NC3(CCN(CC(C)C)CC3)NC2=C(NC(=O)/C(C)=C/C=C/[C@H](C)[C@H](O)[C@@H](C)[C@@H](O)[C@@H](C)[C@H](OC(=O)Nc2cccc(-c3ccccc3)c2)[C@@H]1C)C4=O [UMN31],,,,,0.43,0.27
CO[C@H]1/C=C/O[C@@]2(C)Oc3c(C)c(O)c4c(c3C2=O)C2=NC3(CCN(CC(C)C)CC3)NC2=C(NC(=O)/C(C)=C/C=C/[C@H](C)[C@H](O)[C@@H](C)[C@@H](O)[C@@H](C)[C@H](OC(=O)Nc2ccc(-c3ccccc3)cc2)[C@@H]1C)C4=O [UMN38],,,,,0.43,0.2
CO[C@H]1/C=C/O[C@@]2(C)Oc3c(C)c(O)c4c(c3C2=O)C2=NC3(CCN(CC(C)C)CC3)NC2=C(NC(=O)/C(C)=C/C=C/[C@H](C)[C@H](O)[C@@H](C)[C@@H](O)[C@@H](C)[C@H](OC(=O)NCc2cc(-c3cccc(-c5ccccc5)c3)no2)[C@@H]1C)C4=O [UMN41],,,,,0.34,0.25
CO[C@H]1/C=C/O[C@@]2(C)Oc3c(C)c(O)c4c(c3C2=O)C2=NC3(CCN(CC(C)C)CC3)NC2=C(NC(=O)/C(C)=C/C=C/[C@H](C)[C@H](O)[C@@H](C)[C@@H](O)[C@@H](C)[C@H](OC(=O)N2CCN(CC(F)(F)F)CC2)[C@@H]1C)C4=O [UMN54],,,,,0.029,0.13
CO[C@H]1/C=C/O[C@@]2(C)Oc3c(C)c(O)c4c(c3C2=O)C2=NC3(CCN(CC(C)C)CC3)NC2=C(NC(=O)/C(C)=C/C=C/[C@H](C)[C@H](O)[C@@H](C)[C@@H](O)[C@@H](C)[C@H](OC(=O)N2CCN(CCO)CC2)[C@@H]1C)C4=O [UMN55],,,,,0.13,0.28
CO[C@H]1/C=C/O[C@@]2(C)Oc3c(C)c(O)c4c(c3C2=O)C2=NC3(CCN(CC(C)C)CC3)NC2=C(NC(=O)/C(C)=C/C=C/[C@H](C)[C@H](O)[C@@H](C)[C@@H](O)[C@@H](C)[C@H](OC(=O)Nc2nc(-c3ccccc3)cs2)[C@@H]1C)C4=O [UMN57],,,,,0.25,0.15
CO[C@H]1/C=C/O[C@@]2(C)Oc3c(C)c(O)c4c(c3C2=O)C2=NC3(CCN(CC(C)C)CC3)NC2=C(NC(=O)/C(C)=C/C=C/[C@H](C)[C@H](O)[C@@H](C)[C@@H](O)[C@@H](C)[C@H](OC(=O)N2Cc3ccccc3C2)[C@@H]1C)C4=O [UMN65],,,,,0.052,0.11
CO[C@H]1/C=C/O[C@@]2(C)Oc3c(C)c(O)c4c(c3C2=O)C2=NC3(CCN(CC(C)C)CC3)NC2=C(NC(=O)/C(C)=C/C=C/[C@H](C)[C@H](O)[C@@H](C)[C@@H](O)[C@@H](C)[C@H](OC(=O)N2CCN(C(C)C)CC2)[C@@H]1C)C4=O [UMN66],,,,,0.056,0.17
CO[C@H]1/C=C/O[C@@]2(C)Oc3c(C)c(O)c4c(c3C2=O)C2=NC3(CCN(CC(C)C)CC3)NC2=C(NC(=O)/C(C)=C/C=C/[C@H](C)[C@H](O)[C@@H](C)[C@@H](O)[C@@H](C)[C@H](OC(=O)N2CCC(N(C)C)CC2)[C@@H]1C)C4=O [UMN74],,,,,0.13,0.12
CO[C@H]1/C=C/O[C@@]2(C)Oc3c(C)c(O)c4c(c3C2=O)C2=NC3(CCN(CC(C)C)CC3)NC2=C(NC(=O)/C(C)=C/C=C/[C@H](C)[C@H](O)[C@@H](C)[C@@H](O)[C@@H](C)[C@H](OC(=O)N2CCC(C)(C)C2)[C@@H]1C)C4=O [UMN75],,,,,0.035,0.13
CO[C@H]1/C=C/O[C@@]2(C)Oc3c(C)c(O)c4c(c3C2=O)C2=NC3(CCN(CC(C)C)CC3)NC2=C(NC(=O)/C(C)=C/C=C/[C@H](C)[C@H](O)[C@@H](C)[C@@H](O)[C@@H](C)[C@H](OC(=O)N2CCOCC2)[C@@H]1C)C4=O [UMN78],,,,,0.040,0.16
CO[C@H]1/C=C/O[C@@]2(C)Oc3c(C)c(O)c4c(c3C2=O)C2=NC3(CCN(CC(C)C)CC3)NC2=C(NC(=O)/C(C)=C/C=C/[C@H](C)[C@H](O)[C@@H](C)[C@@H](O)[C@@H](C)[C@H](OC(=O)N2CCCC2)[C@@H]1C)C4=O [UMN79],,,,,0.030,0.18
COC(=O)Cn1cc(CNC(=O)O[C@H]2[C@H](C)[C@H](O)[C@H](C)[C@@H](O)[C@@H](C)/C=C/C=C(\C)C(=O)NC3=C4NC5(CCN(CC(C)C)CC5)N=C4c4c(c(O)c(C)c5c4C(=O)[C@@](C)(O/C=C/[C@H](OC)[C@H]2C)O5)C3=O)nn1 [UMN84],,,,,0.15,0.13
